We go through 2 compounds from article PMC3479105, “K-134, a Phosphodiesterase 3 Inhibitor, Prevents Brain Damage by Inhibiting Thrombus Formation in a Rat Cerebral Infarction Model” (PLoS ONE, 2012).

SMILES strings stand for the structures. Read-outs that look alike come from different tables or passages of the source. Marks after values point to notes of the source that are not given here.

The test system of data set [1] is photothrombotic middle cerebral artery (MCA) occlusion. The data set is described as follows: Photothrombotic MCA occlusion time in rat stroke model. The conditions noted are these: SD rats, n = 12, control 4.1±0.4 min. Type of data set: in vivo. Here is the method:
(§1) Brain infarction was produced by photothrombotic MCA occlusion essentially as reported previously. K-134 and cilostazol were administered to SD rats 2 h and 3 h before irradiation for MCA occlusion, respectively (n = 12), because K-134 reached plasma peak levels at 1–2 h, and cilostazol and its active metabolites (OPC-13015 and OPC-13213) reached at >3 h (Table S1) after oral administration in conscious male SD rats under fed conditions. Rats were anesthetized by intraperitoneal administration of 50 mg/kg of sodium pentobarbital (Kyoritsu Pharmaceutical Co., Ltd., Nara, Japan). Then, a polyethylene catheter for administration of rose bengal was placed in the left femoral vein. Rats were mounted on a brain stereotactic apparatus, and body temperature was maintained at 37°C with a heating pad. The left temporalis muscle was partially cut after incision of the scalp, and craniotomy was performed using a dental drill under an operating microscope. The fiber of a xenon lamp (Model L-4887; Hamamatsu Photonics Co., Ltd., Shizuoka, Japan) was placed on the MCA for irradiation (wavelength: 540 nm, 800000 lux), and the probe of the laser Doppler flow meter (ALF21R; Advance Co., Ltd., Tokyo, Japan) was placed on the MCA distal to the fiber. After 2 min of irradiation, rose bengal (25 mg/kg/mL; Sigma Aldrich Co., MO, USA) was injected for the next 2 min. The MCA was continuously irradiated for 8 min. Blood flow was measured for 18 min from the commencement of irradiation. The MCA occlusion time was determined from blood flow data. When blood flow continued beyond the observation period, the occlusion time was regarded as 16 min. After surgery, the incision site was closed with sutures, and rats were returned to their cages.

Data set [2] relates to photothrombotic cerebral infarction model. The data set is described as follows: Infarct volume 24 h after photothrombotic MCA occlusion. It is filed as in vivo, rat. The conditions noted are these: for infarct volume: 24 h after MCA occlusion, control 131.4±18.9 mm^3; for bleeding in the cerebrum observed macroscopically: rats treated with K-134 and cilostazol in photothrombotic stroke model. Here is the method: as §1
Twenty-four hours after MCA occlusion, rats were sacrificed by an overdose of pentobarbital and cutting an abdominal vein. The brain was immediately removed, cooled with cold spray (Pip Co., Ltd., Osaka, Japan), and cut into six slices (2 mm thick) using a slicer (RBSC-02; Neuro Science Inc., Tokyo, Japan) and razor (FA-10; Feather Razor, Co., Ltd., Osaka, Japan). The cutting base point (0 mm) was set at the position of bregma, and brains were cut at −2, −4, 0, +2, +4, +6, +8 mm from the base point. The brain slices were stained with 1% (w/v) 2,3,5-triphenyl-2H-tetrazolium chloride (TTC; Tokyo Chemical Industry Co., Ltd., Tokyo, Japan) in saline solution at 37°C for 20 min. The stained slices were photographed with a digital camera (CAMEDIA E-10; Olympus Co., Ltd., Tokyo, Japan). Whole brain areas and infarcted areas were quantified by image analysis (Win ROOF; Mitani Co., Ltd., Tokyo, Japan), and infarct volume were calculated with the trapezoidal rule.

A further data set has as its system rat platelet aggregation. In words: Rat platelet aggregation in vitro (PRP, aggregometer). Type of data set: cell-based. Here is the method: Platelet-rich plasma (PRP) was prepared by centrifugation (900 rpm, 15 min, at room temperature) of blood (05PR-22 centrifuge with a 03 rotor; Hitachi, Ltd., Tokyo, Japan), and the platelet count was adjusted to 5×10^5/µL with platelet-poor plasma prepared by centrifugation (3000 rpm, 10 min, at room temperature). PRP was incubated with antiplatelet agents at 37°C for 3 min and stimulated with collagen (final concentration, 15 µg/mL; MC Medical Inc., Tokyo, Japan) or adenosine diphosphate (ADP) (final concentration, 7.5 µM; MC Medical Inc.) (n = 5). Platelet aggregation was quantified by measuring the area under the curve (AUC) during the 5-min period after addition of trigger using a light transmittance aggregometer (PAM-8C; Mebanix Co., Ltd., Tokyo, Japan).

The subject of data set [3] is arteriovenous shunt thrombus formation. The data set is described as follows: Arteriovenous shunt thrombosis model. It is filed as in vivo, rat. The conditions noted are these: for Occluded/Total: n = 12, control 11/12; for Occlusion (%): control 92; for ED50: Rattus norvegicus, rats, single oral dose 90 min before creation of the arteriovenous shunt, read-out: ED50, incidence of occlusive shunt thrombi. An excerpt: (§2) Immediately after a single oral administration of the test compound, SD rats were anesthetized by subcutaneous injection of 1.2 g/kg of urethane (n = 12). Ninety minutes after oral administration of a single dose of K-134 or cilostazol, one end of a polyethylene catheter (size 3, 24 cm; Hibiki, Tokyo, Japan) filled with physiological saline was inserted into the left jugular vein, with the other end of the catheter inserted into the right common carotid artery to create a loop. The end of the catheter was removed from the jugular vein 4 h after creation of the loop. A thrombus was then regarded to have been formed when blood no longer ran from the catheter. […] The serum concentrations of K-134 and cilostazol were determined by high-performance liquid chromatography (HPLC).

The nature of data set [4]: Plasma concentration in rat arteriovenous shunt model. Type of data set: in vivo. The conditions noted are these: SD, n = 6.
Source text: as §2

A short description of data set [5]: Electron spin resonance (ESR) radical scavenging. The conditions noted are these: ESR experiments, data not shown. From the text: In the photothrombotic cerebral infarction model, photoactivation of rose bengal by illumination with green light results in reactive oxygen intermediates (predominantly singlet oxygen and superoxide). […] Therefore, we concluded that the observed inhibitory effects of K-134 on photothrombosis in this model are relevant to its antiplatelet activity but not radical scavenging activity.

Another data set deals with PDE2. Details: method as in PMID 10644042. The conditions noted are these: read-out: IC50 toward PDE2; cited from earlier work.
The next data set concerns PDE3A. Details: method as in PMID 10644042. The conditions noted are these: read-out: IC50 toward PDE3A; cited from earlier work.
Another data set deals with PDE3B. Details: method as in PMID 10644042. The conditions noted are these: read-out: IC50 toward PDE3B; cited from earlier work.
Another data set relates to PDE4. Set-up: method as in PMID 10644042. The conditions noted are these: read-out: IC50 toward PDE4; cited from earlier work.
The subject of a further data set is PDE5. Set-up: method as in PMID 10644042. The conditions noted are these: read-out: IC50 toward PDE5; cited from earlier work.
On the set-up of data set [6]: method as in PMID 22269153. The conditions noted are these: cited from earlier work.
The mark [7] stands for this setting: ADP 7.5 µM, n = 5, read-out: IC50, rat platelet aggregation induced by ADP.
The mark [8] stands for this setting: collagen 15 µg/mL, n = 5, read-out: IC50, rat platelet aggregation induced by collagen.

Broadly, the IC50 is the concentration at which inhibition is half-maximal. Broadly, the ED50 is the dose that gives a 50% effect, or the effect in half of the subjects. A word on the Cmax: it is the highest concentration seen after dosing. Regarding `O=C(NCCCOc1ccc2[nH]c(=O)ccc2c1)N(C1CC1)[C@@H]1CCCC[C@H]1O` [K-134], the MCA occlusion time in [1] (10 mg/kg oral preadministration, mean ± SEM) turned out to be 7.9 ± 1.1 min; in data set [1] (30 mg/kg oral preadministration, mean ± SEM), 9.1 ± 1.6 min. Also, the infarct volume in data set [2] (10 mg/kg oral, not significant) was 92.0±14.7 mm^3; in [2] (30 mg/kg oral, significant) it was 62.1±12.9 mm^3. Further, the “bleeding in the cerebrum observed macroscopically” value in data set [2] is listed as “No bleeding”. The IC50 in the data set with rat platelet aggregation (setting [7]) was 3.2 µM; in the data set with rat platelet aggregation (setting [8]), 2.5 µM; in the data set on PDE2, more than 300 µM; with PDE3A, 0.1 µM; in the data set on PDE3B, 0.28 µM; in the data set on PDE4, more than 300 µM. The IC50 with PDE5 is 12.1 µM. For the same compound, the “Inhibition (%) of arteriovenous shunt thrombus formation” value in [3] (3 mg/kg single oral dose) is reported as 18%; in data set [3] (10 mg/kg single oral dose) it was 64%; in data set [3] (30 mg/kg single oral dose), 64%. The Occluded/Total is 9/12 in [3] (3 mg/kg single oral dose), 4/12* in data set [3] (10 mg/kg single oral dose) and 4/12* in [3] (30 mg/kg single oral dose). Moreover, the results for the “Occlusion (%)” value in [3] (3 mg/kg single oral dose), in data set [3] (10 mg/kg single oral dose) and in data set [3] (30 mg/kg single oral dose) were 75%, 33% and 33%, respectively. Besides, in [3], the ED50 was determined as 11 mg/kg. This compound had a peak concentration (Cmax) in data set [4] (10 mg/kg oral) of 430 ± 80 nM. In [5], the “scavenging activities against singlet oxygen and superoxide anion radical” value is recorded as “did not show scavenging activities”. Moreover, the “time to plasma peak levels” value in data set [6] (oral administration, conscious male SD rats under fed conditions) was 1 to 2 h. In addition, in [6] (rats, 10 mg/kg), the “half-life (T1/2)” value is given as “about 2 h”.
For `O=C1CCc2cc(OCCCCc3nnnn3C3CCCCC3)ccc2N1` [cilostazol], in data set [1] (300 mg/kg oral preadministration, not statistically significant), the MCA occlusion time is 6.9 ± 1.3 min. Further, the infarct volume in data set [2] (300 mg/kg oral, not significant) is recorded as 95.8±14.8 mm^3. The “bleeding in the cerebrum observed macroscopically” value in data set [2] was “No bleeding”. For the same compound, the IC50 with rat platelet aggregation (setting [7]) was 83 µM; in the data set on rat platelet aggregation (setting [8]) it was 42 µM; in the data set with PDE2, 45.2 µM; with PDE3A it was 0.2 µM; in the data set on PDE3B it was 0.38 µM; in the data set with PDE4 it was 88 µM. Further, in the data set on PDE5, the IC50 is 4.4 µM. Also, the “Inhibition (%) of arteriovenous shunt thrombus formation” value is listed as 37% in data set [3] (10 mg/kg single oral dose), 64% in data set [3] (30 mg/kg single oral dose) and 73% in [3] (100 mg/kg single oral dose). Moreover, the Occluded/Total is reported as 7/12 in data set [3] (10 mg/kg single oral dose), 4/12* in [3] (30 mg/kg single oral dose) and 3/12** in data set [3] (100 mg/kg single oral dose). Moreover, the entries for the “Occlusion (%)” value in data set [3] (10 mg/kg single oral dose), in data set [3] (30 mg/kg single oral dose) and in [3] (100 mg/kg single oral dose) were 58%, 33% and 25%, respectively. In addition, in data set [3], the ED50 was 18 mg/kg. Besides, the Cmax in data set [4] (30 mg/kg oral) is 2080 ± 280 nM. In addition, the “scavenging activities against singlet oxygen and superoxide anion radical” value in data set [5] is “did not show scavenging activities”.
